Source: patent publication US4361703A, “Para-amino(or nitro)phenyl N-acetylaminothioalkanoates” (priority 1977, dated 1982)
Like-named read-outs stand apart in the source and are kept apart here.

Experiments:
[1] = tested on: yeast-inflamed hind-paw pain-threshold; experiment: Analgesic activity, Randall-Selitto test in rats; type: in vivo, female Charles River rats
Method: (C)--Investigation of Analgesic Activity in Rats
A control group received only the gum tragacanth vehicle.
In order to evaluate the effect of the treatment upon pain-thresholds, pressure was applied both to the injected hind-paw and to the other non-injected hind-paw. The pain-threshold was noted as the pressure at which the rat flinched, measured using an Ugo Basile "Analgesimeter" for both hind-paws of each rat at intervals of 1 hour, 3 hours, 5 hours and 22 hours after the administration, and expressed as the percentage of the pain-threshold pressure for the injected (and thus inflamed) hind-paw as against the non-injected (and thus healthy) hind-paw.

in vivo = settings: mouse, in vivo, po
Method: (E)--Investigation of Acute Oral Toxicity in Mice
Charles River (CD-1 COBS) albino mice, 20-22 g in weight, were kept for some days in an air-conditioned animal house and fed with a standard diet (sterile VAR granules). They were fasted overnight before experiment, with water ad libitum. 15 Male mice and 15 female mice were used for each experiment.
N-Acetyl-para-aminophenol (NAPA) and N-acetyl-para-aminophenyl N'-acetyl-D,L-methionate (Compound A) were then administered to the mice, orally, as a suspension (shaken continuously with an electromagnetic agitator) in 5% gum arabic at a volume of 0.02 ml/g, either individually or in variously proportioned mixtures and at different dose levels, as shown in Table VII below.
A control group received only the 5% gum arabic vehicle.

[2] = Acute oral toxicity in rats; type: in vivo; settings: rat, in vivo; for mortality at 144 h / mortality at 48 h / mortality at 72 h / mortality at 96 h / mortality at 120 h / mortality at 168 h / mortality at 24 h: po; for mortality at 144 h: 6 Days
Method: (§1) (F)--Investigation of Acute Oral Toxicity in Rats
(§2) The investigation was carried out upon groups of 10 male and 10 female albino rats (Charles River CD-1 COBS) of 80-100 g body weight. […] Before the experiment they were fasted overnight, with water ad libitum. NAPA and Compound A were then administered orally by oesophageal intubation as suspensions (continuously shaken with an electromagnetic agitator) in 1% gum arabic at a volume of 2 ml/100 g body weight, and at dose levels of 1, 2, 4 and 8 g/kg. A control group received orally, under the same experimental conditions, merely 2 ml/100 g of the suspension vehicle. The rats were then kept under observation during seven days, while their behaviour patterns were observed and the mortality recorded

[3] = tested on: albino rats (Charles River CD-1 COBS); experiment: Acute oral toxicity in rats; type: in vivo
Method: as §1, §2

[4] = mouse, in vivo, po
Method: (A)--Investigation of Serum Concentrations in Mice
36 Charles River COBS mice (18 males and 18 females) weighing 30 g each were deprived of food for 16 hours before the trial but were given their usual drinking water. Three groups, each containing 6 males and 6 females, received a dosage of 1 ml/100 g body weight per mouse, orally by stomach tube, of a suspension in 1% gum tragacanth of respectively:
Group X: 500 mg/kg of N-acetyl-para-aminophenol
A blood sample was taken by throat-slitting from one male and one female from each Group at each study time, i.e. 1/2, 1, 2, 4 and 24 hours after the oral administration.
At times 1/2, 1, 2 and 4 hours, each serum sample was divided into three 0.1 ml trial samples for the following three determinations:

[5] = 1000 mg/kg, 1 g/kg oral, 10 F, read-out: Percentage Mortality
[6] = 1000 mg/kg, 1 g/kg oral, 10 M, read-out: Percentage Mortality
[7] = 1000 mg/kg, 1 g/kg oral, M & F, read-out: Percentage Mortality
[8] = 2000 mg/kg, 2 g/kg oral, 10 F, read-out: Percentage Mortality
[9] = 2000 mg/kg, 2 g/kg oral, 10 M, read-out: Percentage Mortality
[10] = 2000 mg/kg, 2 g/kg oral, M & F, read-out: Percentage Mortality
[11] = 4000 mg/kg, 4 g/kg oral, 10 F, read-out: Percentage Mortality
[12] = 4000 mg/kg, 4 g/kg oral, 10 M, read-out: Percentage Mortality
[13] = 4000 mg/kg, 4 g/kg oral, M & F, read-out: Percentage Mortality
[14] = 4000 mg/kg, Percentage Mortality
[15] = 8000 mg/kg, 8 g/kg oral, 10 F, read-out: Percentage Mortality
[16] = 8000 mg/kg, 8 g/kg oral, 10 M, read-out: Percentage Mortality
[17] = 8000 mg/kg, 8 g/kg oral, M & F, read-out: Percentage Mortality
[18] = 8000 mg/kg, Percentage Mortality

CC(=O)Nc1ccc(O)cc1 [NAPA, N-acetyl-para-aminophenol]
Percentage Pain-Threshold (injected vs non-injected paw) ([1]; 1 millimole/kg oral (NAPA 151, A 324 mg/kg), 1 hr. (3.5 hrs. from yeast)): 45 ± 3.5 Percentage | Percentage Pain-Threshold (injected vs non-injected paw) ([1]; 1 millimole/kg oral (NAPA 151, A 324 mg/kg), 3 hrs. (5.5 hrs. from yeast)): 48 ± 4.1 Percentage | Percentage Pain-Threshold (injected vs non-injected paw) ([1]; 1 millimole/kg oral (NAPA 151, A 324 mg/kg), 5 hrs. (7.5 hrs. from yeast)): 47 ± 1.7 Percentage | Percentage Pain-Threshold (injected vs non-injected paw) ([1]; 1 millimole/kg oral (NAPA 151, A 324 mg/kg), 22 hrs. (24.5 hrs. from yeast)): 43 ± 3.4 Percentage | Percentage Pain-Threshold (injected vs non-injected paw) ([1]; 2 millimoles/kg oral (NAPA 302, A 648 mg/kg), 1 hr. (3.5 hrs. from yeast)): 50 ± 4.2 Percentage | Percentage Pain-Threshold (injected vs non-injected paw) ([1]; 2 millimoles/kg oral (NAPA 302, A 648 mg/kg), 3 hrs. (5.5 hrs. from yeast)): 54 ± 4.0 Percentage | Percentage Pain-Threshold (injected vs non-injected paw) ([1]; 2 millimoles/kg oral (NAPA 302, A 648 mg/kg), 5 hrs. (7.5 hrs. from yeast)): 53 ±3.9 Percentage | Percentage Pain-Threshold (injected vs non-injected paw) ([1]; 2 millimoles/kg oral (NAPA 302, A 648 mg/kg), 22 hrs. (24.5 hrs. from yeast)): 54 ± 4.7 Percentage | P of pain-threshold (t-test versus control) ([1]; 2 millimoles/kg oral, 3 hrs.): < 0.05 | LD50 at 24 h (in vivo): 730 ± 65 mg/kg | LD50 at 168 h (in vivo): 690 ± 65 mg/kg | mortality at 144 h [2, 5]: 0% | mortality at 48 h [2, 5]: 0% | mortality at 72 h ([2]; 1000 mg/kg, 1 g/kg oral, 10 M, 3 Days, read-out: Percentage Mortality): 10% | mortality at 96 h ([2]; 1000 mg/kg, 1 g/kg oral, 10 M, 4 Days, read-out: Percentage Mortality): 10% | mortality at 120 h ([2]; 1000 mg/kg, 1 g/kg oral, 10 M, 5 Days, read-out: Percentage Mortality): 10% | mortality at 144 h [2, 6]: 10% | mortality at 168 h ([2]; 1000 mg/kg, 1 g/kg oral, 10 M, 7 Days, read-out: Percentage Mortality): 10% | mortality at 24 h ([2]; 1000 mg/kg, 1 g/kg oral, 10 M, 24 Hours, read-out: Percentage Mortality): 10% | mortality at 48 h [2, 6]: 10% | mortality at 120 h ([2]; 1000 mg/kg, 1 g/kg oral, M & F, 5 Days, read-out: Percentage Mortality): 5% | mortality at 144 h [2, 7]: 5% | mortality at 48 h [2, 7]: 5% | mortality at 120 h ([2]; 1000 mg/kg, Percentage Mortality): 0% | mortality at 144 h [2, 8]: 0% | mortality at 48 h [2, 8]: 0% | mortality at 72 h ([2]; 2000 mg/kg, 2 g/kg oral, 10 M, 3 Days, read-out: Percentage Mortality): 10% | mortality at 96 h ([2]; 2000 mg/kg, 2 g/kg oral, 10 M, 4 Days, read-out: Percentage Mortality): 10% | mortality at 120 h ([2]; 2000 mg/kg, 2 g/kg oral, 10 M, 5 Days, read-out: Percentage Mortality): 10% | mortality at 144 h [2, 9]: 10% | mortality at 168 h ([2]; 2000 mg/kg, 2 g/kg oral, 10 M, 7 Days, read-out: Percentage Mortality): 10% | mortality at 24 h ([2]; 2000 mg/kg, 2 g/kg oral, 10 M, 24 Hours, read-out: Percentage Mortality): 10% | mortality at 48 h [2, 9]: 10% | mortality at 120 h ([2]; 2000 mg/kg, 2 g/kg oral, M & F, 5 Days, read-out: Percentage Mortality): 5% | mortality at 144 h [2, 10]: 5% | mortality at 48 h [2, 10]: 5% | mortality at 120 h ([2]; 2000 mg/kg, Percentage Mortality): 0% | mortality at 144 h [2, 11]: 70% | mortality at 168 h ([2]; 4000 mg/kg, 4 g/kg oral, 10 F, 7 Days, read-out: Percentage Mortality): 70% | mortality at 48 h [2, 11]: 70% | mortality at 72 h ([2]; 4000 mg/kg, 4 g/kg oral, 10 M, 3 Days, read-out: Percentage Mortality): 90% | mortality at 96 h ([2]; 4000 mg/kg, 4 g/kg oral, 10 M, 4 Days, read-out: Percentage Mortality): 90% | mortality at 120 h ([2]; 4000 mg/kg, 4 g/kg oral, 10 M, 5 Days, read-out: Percentage Mortality): 90% | mortality at 144 h [2, 12]: 90% | mortality at 168 h ([2]; 4000 mg/kg, 4 g/kg oral, 10 M, 7 Days, read-out: Percentage Mortality): 90% | mortality at 24 h ([2]; 4000 mg/kg, 4 g/kg oral, 10 M, 24 Hours, read-out: Percentage Mortality): 90% | mortality at 48 h [2, 12]: 90% | mortality at 144 h [2, 13]: 80% | mortality at 48 h [2, 13]: 80% | mortality at 24 h [2, 14]: 70% | mortality at 72 h [2, 14]: 70% | mortality at 96 h [2, 14]: 70% | mortality at 120 h [2, 14]: 70% | mortality at 168 h [2, 14]: 80% | mortality at 144 h [2, 15]: 100% | mortality at 48 h [2, 15]: 100% | mortality at 72 h ([2]; 8000 mg/kg, 8 g/kg oral, 10 M, 3 Days, read-out: Percentage Mortality): 100% | mortality at 96 h ([2]; 8000 mg/kg, 8 g/kg oral, 10 M, 4 Days, read-out: Percentage Mortality): 100% | mortality at 120 h ([2]; 8000 mg/kg, 8 g/kg oral, 10 M, 5 Days, read-out: Percentage Mortality): 100% | mortality at 144 h [2, 16]: 100% | mortality at 168 h ([2]; 8000 mg/kg, 8 g/kg oral, 10 M, 7 Days, read-out: Percentage Mortality): 100% | mortality at 24 h ([2]; 8000 mg/kg, 8 g/kg oral, 10 M, 24 Hours, read-out: Percentage Mortality): 90% | mortality at 48 h [2, 16]: 100% | mortality at 144 h [2, 17]: 100% | mortality at 48 h [2, 17]: 100% | mortality at 24 h [2, 18]: 100% | mortality at 72 h [2, 18]: 100% | mortality at 96 h [2, 18]: 100% | mortality at 120 h [2, 18]: 100% | mortality at 168 h [2, 18]: 100% | LD50 at 24 h ([2]; oral, rats, Miller and Tainter method): 3100 ± 500 mg/kg | LD50 at 168 h ([2]; oral, rats, Miller and Tainter method, read-out: LD50 (7 days)): 2850 ± 400 mg/kg | time of first deaths ([3]; 8 g/kg oral, rats): eight hours after the administration at 8 g/kg dose level | mortality (in words) ([3]; oral, rats, 1-8 g/kg): Heavy mortality | Percentage Mortality ([3]; rat, in vivo, po, 8000 mg/kg, 24 h): 95 Percentage | serum "total" or "enzymatic" NAPA profile [4]: slowly decreases but remains high up to 4 hours after oral administration
